Test systems include NCI-H226; OVCAR-8; SR; SK-MEL-2; MOLT-4; HL-60; HOP-92; CAKI-1; A549; A498; UACC-62; HT-29; U-251; M14; OVCAR-4; RPMI-8226; DLD-1; DMS-273; DMS-114; LXFL 529.
Common to all, as to assay: growth of human tumour cells (NCI), 48 h

Molecules are shown by their SMILES.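 A five-concentration, 48-hour dose response in 96-well plates underlies each endpoint, interpolated linearly between surrounding concentrations. Abbreviation: GI50, concentration required for 50% inhibition of growth.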 Active and inactive are the calls of the source. Rule as the data show it: active = GI50 up to about 1.1 µM and inactive = higher. Bounds are passed on as bounds.

Take `COC1=CC(=O)c2c(c(COC(C)=O)cn2C)C1=O`: the GI50 is 0.137 µM (active) in the test with NCI-H226; 0.122 µM (active) in the test with OVCAR-8; 0.211 µM (active) in the test with SR; 0.163 µM (active) in the test with SK-MEL-2; 0.305 µM (active) in the test with MOLT-4; 0.299 µM (active) with HL-60. Also, the GI50 in the test with HOP-92 is 0.291 µM (active); with CAKI-1, 0.0405 µM (active); in the test with A549, 0.207 µM (active); in the test on A498 it was 0.244 µM (active); in the test with UACC-62 it was 0.13 µM (active); in the test with HT-29, 0.0261 µM (active). Moreover, the GI50 is 0.129 µM (active) with U-251, 0.0632 µM (active) in the test on M14, 0.257 µM (active) in the test on OVCAR-4 and 0.211 µM (active) in the test with RPMI-8226.

On to `CC(=O)Oc1c(OC(C)=O)c(-c2ccc(O)c(O)c2)c(O)c(O)c1-c1ccc(O)cc1`, for which the GI50 was > 100 µM (inactive) with NCI-H226; > 100 µM (inactive) with DLD-1; 46.2 µM (inactive) in the test with OVCAR-8; 29.4 µM (inactive) in the test with SK-MEL-2; > 100 µM (inactive) with MOLT-4; 54.2 µM (inactive) with HL-60. Also, the GI50 with HOP-92 was 30.2 µM (inactive); with CAKI-1 it was > 100 µM (inactive); with DMS-273, > 100 µM (inactive); in the test on A549 it was > 100 µM (inactive); in the test on A498, > 100 µM (inactive); in the test with UACC-62 it was 27.4 µM (inactive). In addition, the GI50 is 21.3 µM (inactive) in the test with DMS-114; > 100 µM (inactive) in the test with HT-29; > 100 µM (inactive) in the test on U-251; > 100 µM (inactive) in the test with OVCAR-4; > 100 µM (inactive) with RPMI-8226.

Consider `COc1ccc(CC(CO)NC(=O)OCc2ccccc2)cc1Oc1ccc(CC(CO)NC(=O)OCc2ccccc2)cc1` (stereo not given), for which the GI50 in the test with SR is 26.7 µM (inactive); in the test on SK-MEL-2, 16.1 µM (inactive); in the test with MOLT-4, 3.43 µM (inactive); in the test with HOP-92 it was 18.3 µM (inactive); in the test with CAKI-1, 20.4 µM (inactive); in the test on A549, 11.7 µM (inactive). Further, the GI50 is 15.5 µM (inactive) in the test on A498; 11.5 µM (inactive) in the test on UACC-62; 11.1 µM (inactive) in the test on HT-29; 21.2 µM (inactive) with U-251; 10.7 µM (inactive) with M14; 27.9 µM (inactive) in the test on OVCAR-4. Further, the GI50 in the test with RPMI-8226 was 6.27 µM (inactive).

Turning to `COc1nc(Cl)nc(N[C@H](C)c2c3ccccc3cc3ccccc23)n1`, the GI50 with NCI-H226 is 13.1 µM (inactive); in the test on OVCAR-8, 14.8 µM (inactive); with SK-MEL-2, 15.8 µM (inactive); in the test with MOLT-4, 14.1 µM (inactive); with HL-60 it was 19.1 µM (inactive); in the test with HOP-92 it was 18.6 µM (inactive). Further, the GI50 in the test with CAKI-1 is 11.6 µM (inactive); in the test on A549 it was 27.7 µM (inactive); in the test on A498, < 0.01 µM (active); with UACC-62, 0.628 µM (active); in the test with HT-29 it was 15.5 µM (inactive); in the test on U-251 it was 16.4 µM (inactive). Further, the values for the GI50 with OVCAR-4 and in the test with RPMI-8226 were 3.12 µM (inactive) and 5.3 µM (inactive), respectively.

As to `Cc1ccc(NC(=O)CC(=O)n2nc(-c3ccccc3)c(/N=N/c3ccccc3C(=O)O)c2-c2ccccc2)cc1`, the GI50 in the test on NCI-H226 is > 100 µM (inactive); with DLD-1 it was 39.3 µM (inactive); in the test on OVCAR-8, > 100 µM (inactive); in the test with SR, > 100 µM (inactive); with SK-MEL-2 it was > 100 µM (inactive); with MOLT-4 it was 4.4 µM (inactive). The GI50 with HOP-92, with CAKI-1, in the test on DMS-273, in the test with A549, in the test on UACC-62 and in the test with LXFL 529 was > 100 µM (inactive) in each case. Also, the GI50 in the test on OVCAR-4 and with RPMI-8226 was > 100 µM (inactive) in each case.

With `COc1ccc2oc3c(ccc[n+]3C)c(=O)c2c1`, the GI50 with NCI-H226, in the test on OVCAR-8, in the test on SR, in the test with SK-MEL-2, in the test on HL-60 and with HOP-92 was > 100 µM (inactive) each time. In addition, the GI50 with CAKI-1, with A549, in the test with A498, in the test on UACC-62, with HT-29 and with U-251 was > 100 µM (inactive) throughout. Further, the GI50 with M14 and in the test on OVCAR-4 was > 100 µM (inactive) throughout.

For `CCN(CC)CCCNC(=O)c1ccccc1Nc1c(Cl)cccc1Cl`, the GI50 with NCI-H226 is 12.4 µM (inactive); in the test with DLD-1 it was 11.6 µM (inactive); with OVCAR-8, 15.7 µM (inactive); in the test with SR it was 10.8 µM (inactive); in the test with MOLT-4 it was 11.8 µM (inactive); with HL-60, 3.18 µM (inactive). In addition, the GI50 in the test with DMS-273 is 17.3 µM (inactive); with A549 it was 15.7 µM (inactive); in the test on UACC-62, 12 µM (inactive); in the test on LXFL 529, 14.6 µM (inactive); with DMS-114, 12.2 µM (inactive); in the test with HT-29 it was 4.23 µM (inactive). The GI50 was 2.64 µM (inactive) in the test with M14, 7.31 µM (inactive) in the test with OVCAR-4 and 5.68 µM (inactive) in the test on RPMI-8226.

On to `Cc1cccc2sc(-c3ccc(O)cc3)nc12`, for which the GI50 is 14.8 µM (inactive) in the test with NCI-H226; 16.7 µM (inactive) in the test on OVCAR-8; 22 µM (inactive) in the test on SR; 17.7 µM (inactive) in the test on SK-MEL-2; 43.7 µM (inactive) in the test on MOLT-4; 15.9 µM (inactive) in the test on HL-60. Besides, the GI50 with CAKI-1 was 16.5 µM (inactive); with A549, 12.8 µM (inactive); with A498 it was 3.15 µM (inactive); with UACC-62, 16 µM (inactive); in the test with HT-29 it was 15.3 µM (inactive); in the test with U-251, 19.3 µM (inactive). Moreover, the GI50 with M14 is 15.2 µM (inactive); in the test with OVCAR-4 it was 16 µM (inactive); in the test on RPMI-8226 it was 20.9 µM (inactive).

As to `O=C1CN2Cc3cc(N4CCOCC4)ccc3N=C2N1`, the GI50 in the test with NCI-H226 was 44.6 µM (inactive); in the test with OVCAR-8, 72.9 µM (inactive); in the test on SR it was 66.1 µM (inactive); in the test on SK-MEL-2, 42.7 µM (inactive); in the test with MOLT-4 it was 25 µM (inactive); with HL-60 it was 72.6 µM (inactive). The GI50 was > 100 µM (inactive) with HOP-92; 56.5 µM (inactive) with CAKI-1; 91 µM (inactive) in the test on A498; 26.2 µM (inactive) in the test with UACC-62; 38 µM (inactive) in the test on HT-29; 39.4 µM (inactive) in the test with U-251. In addition, the GI50 in the test with M14 is 33 µM (inactive); with OVCAR-4 it was 67.9 µM (inactive); in the test on RPMI-8226 it was 67 µM (inactive).

`O=c1cnn(C/C=C/CP(=O)(O)O)c(=O)[nH]1`: the GI50 in the test on NCI-H226, in the test on OVCAR-8, in the test on SR, in the test on SK-MEL-2, with HL-60 and with HOP-92 was > 100 µM (inactive) each time. The GI50 in the test on CAKI-1, in the test on A549, in the test with A498, with U-251, with M14 and in the test with RPMI-8226 was > 100 µM (inactive) each time.

`O=C(Nc1ccc(I)cc1C(=O)NCCO)c1cccs1`: the GI50 in the test with NCI-H226 is > 100 µM (inactive); with OVCAR-8, > 100 µM (inactive); in the test with SR, 49.7 µM (inactive); with SK-MEL-2, > 100 µM (inactive); with MOLT-4, > 100 µM (inactive); in the test on HL-60, > 100 µM (inactive). Further, the GI50 with CAKI-1 is > 100 µM (inactive); in the test with A549, 82.8 µM (inactive); with UACC-62, > 100 µM (inactive); in the test with HT-29, > 100 µM (inactive); in the test with U-251, > 100 µM (inactive); in the test on M14, > 100 µM (inactive). Further, the results for the GI50 with OVCAR-4 and in the test with RPMI-8226 were > 100 µM (inactive) and 53.5 µM (inactive), respectively.

With `CCOC(=O)C(C)OC(=O)c1ccc(C)cc1` (stereo not given), the GI50 with DLD-1, with OVCAR-8, in the test on SR, with SK-MEL-2, with MOLT-4 and in the test with HL-60 was > 100 µM (inactive) throughout. Further, the GI50 with HOP-92, in the test on DMS-273, with A549, in the test with A498, in the test with UACC-62 and in the test with LXFL 529 was > 100 µM (inactive) in each case. Moreover, the GI50 with DMS-114, in the test with HT-29, in the test on U-251 and with M14 was > 100 µM (inactive) each time.

These data come from ChEMBL document CHEMBL1201862, “PubChem BioAssay data set” (2004).
